# Measured values published in ChEMBL document CHEMBL4229332, “Novel multi-target azinesulfonamides of cyclic amine derivatives as potential antipsychotics with pro-social and pro-cognitive effects” (Eur J Med Chem, 2018).
# pKi: −log10 of the molar value.
# Key:
# [1] = target: Histamine H1 receptor (Homo sapiens) (UniProt P35367); test: Displacement of [3H]-pyrilamine from human histamine H1 receptor expressed in HEK293 cells at 10^-6 M after 60 mins by scintillation counting method relative to control; type: cell-based
# [2] = target: 5-hydroxytryptamine receptor 2A (Homo sapiens, UniProt P28223); test: Displacement of [3H]ketanserin from human recombinant 5-HT2A receptor after 60 mins by scintillation counting analysis
# [3] = test system: Cavia porcellus; test: Cardiotoxicity in guinea pig assessed as effect on QT interval time at 5 mg/kg, ip measured after 20 mins by ECG analysis (reference value: 127.6 to 131.2 milliseconds); type: toxicity, organism-based; conditions: in vivo
# [4] = test system: Cavia porcellus; test: Cardiotoxicity in guinea pig assessed as effect on QT interval time at 5 mg/kg, ip measured after 70 mins by ECG analysis (reference value: 127.6 to 131.2 milliseconds); type: toxicity, organism-based; conditions: in vivo
# [5] = target: D(2) dopamine receptor (Homo sapiens) (UniProt P14416); test: Displacement of [3H]7-OH-DPAT from human recombinant dopamine D2S receptor expressed in CHO cells at 10^-6 M after 60 mins by scintillation counting analysis relative to control; type: cell-based
# [6] = test system: Cavia porcellus; test: Cardiotoxicity in guinea pig assessed as effect on frequence of heart rate at 5 mg/kg, ip measured after 10 mins by ECG analysis (reference value: 262 to 296 /min); type: toxicity, organism-based; conditions: in vivo
# [7] = target: T1, Alpha-1A adrenergic receptor (Homo sapiens) (UniProt P35348); test: Displacement of [3H]-prazosin from human adrenergic alpha1A receptor expressed in CHO cells at 10^-6 M after 60 mins by scintillation counting method relative to control; type: cell-based
# T1 sequence (whole entry): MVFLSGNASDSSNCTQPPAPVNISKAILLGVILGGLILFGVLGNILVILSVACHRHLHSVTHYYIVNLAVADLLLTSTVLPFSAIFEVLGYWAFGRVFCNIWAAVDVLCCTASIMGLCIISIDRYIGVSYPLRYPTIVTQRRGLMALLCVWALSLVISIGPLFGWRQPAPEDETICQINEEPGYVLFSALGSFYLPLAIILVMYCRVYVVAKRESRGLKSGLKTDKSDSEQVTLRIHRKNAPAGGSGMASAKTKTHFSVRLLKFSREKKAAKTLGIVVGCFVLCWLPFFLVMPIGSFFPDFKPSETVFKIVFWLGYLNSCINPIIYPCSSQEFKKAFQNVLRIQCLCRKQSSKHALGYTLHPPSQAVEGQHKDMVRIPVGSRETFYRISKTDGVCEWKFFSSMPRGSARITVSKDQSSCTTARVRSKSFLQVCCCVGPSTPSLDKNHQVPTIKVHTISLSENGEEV
# [8] = test system: Cavia porcellus; test: Cardiotoxicity in guinea pig assessed as effect on QT interval time at 5 mg/kg, ip measured after 80 mins by ECG analysis (reference value: 127.6 to 131.2 milliseconds); type: toxicity, organism-based; conditions: in vivo
# [9] = test system: Cavia porcellus; test: Cardiotoxicity in guinea pig assessed as effect on QTc interval time at 5 mg/kg, ip measured after 60 mins by ECG analysis (reference value: […] to […] milliseconds); type: toxicity, organism-based; conditions: in vivo, 1 h
# [10] = test system: Cavia porcellus; test: Cardiotoxicity in guinea pig assessed as effect on PR interval time at 5 mg/kg, ip measured after 50 mins by ECG analysis (reference value: 58.8 to 63.8 milliseconds); type: toxicity, organism-based; conditions: in vivo
# [11] = test system: Cavia porcellus; test: Cardiotoxicity in guinea pig assessed as effect on QTc interval time at 5 mg/kg, ip measured after 10 mins by ECG analysis (reference value: […] to […] milliseconds); type: toxicity, organism-based; conditions: in vivo
# [12] = test system: Cavia porcellus; test: Cardiotoxicity in guinea pig assessed as effect on RR interval time at 5 mg/kg, ip measured after 70 mins by ECG analysis (reference value: 208.4 to 238.4 milliseconds); type: toxicity, organism-based; conditions: in vivo
# [13] = test system: Cavia porcellus; test: Cardiotoxicity in guinea pig assessed as effect on QT interval time at 5 mg/kg, ip measured after 60 mins by ECG analysis (reference value: 127.6 to 131.2 milliseconds); type: toxicity, organism-based; conditions: in vivo, 1 h
# [14] = target: T2, 5-hydroxytryptamine receptor 1A (Homo sapiens, UniProt P08908); test: Displacement of [3H]-WAY100635 from recombinant full-length human 5-HT1AR expressed in CHO cells after 120 mins by scintillation counting method; type: cell-based
# T2 sequence (P08908 whole entry): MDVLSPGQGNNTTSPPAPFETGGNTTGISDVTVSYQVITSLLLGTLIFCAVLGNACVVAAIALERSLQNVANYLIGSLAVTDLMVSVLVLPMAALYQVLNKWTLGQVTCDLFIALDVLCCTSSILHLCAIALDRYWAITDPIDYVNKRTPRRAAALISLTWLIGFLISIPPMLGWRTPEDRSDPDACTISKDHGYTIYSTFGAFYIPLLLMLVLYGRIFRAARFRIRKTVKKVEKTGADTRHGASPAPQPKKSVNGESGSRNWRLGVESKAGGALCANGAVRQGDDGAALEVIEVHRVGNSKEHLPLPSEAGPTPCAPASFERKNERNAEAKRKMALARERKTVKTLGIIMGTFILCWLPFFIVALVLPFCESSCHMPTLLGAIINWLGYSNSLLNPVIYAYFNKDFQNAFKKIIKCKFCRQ
# [15] = test system: Cavia porcellus; test: Cardiotoxicity in guinea pig assessed as effect on RR interval time at 5 mg/kg, ip measured after 60 mins by ECG analysis (reference value: 208.4 to 238.4 milliseconds); type: toxicity, organism-based; conditions: in vivo, 1 h
# [16] = species: Rattus norvegicus; test: animal or person; conditions: Sprague-Dawley, ip, read-out: MED
# Description: Antipsychotic activity in ip dosed Sprague-Dawley rat assessed as suppression of avoidance behavior by avoiding foot shock administered 60 mins prior to test by conditioned avoidance response test
# [17] = target: D(4) dopamine receptor (Homo sapiens) (UniProt P21917); test: Displacement of [3H]-methyl-spiperone from human dopamine D4 receptor expressed in CHO cells at 10^-6 M after 60 mins by scintillation counting method relative to control; type: cell-based
# [18] = test system: Cavia porcellus; test: Cardiotoxicity in guinea pig assessed as effect on RR interval time at 5 mg/kg, ip measured after 40 mins by ECG analysis (reference value: 208.4 to 238.4 milliseconds); type: toxicity, organism-based; conditions: in vivo
# [19] = target: Sodium-dependent dopamine transporter (Homo sapiens) (UniProt Q01959); test: Displacement of [3H]-BTCP from human DAT expressed in CHO cells at 10^-6 M after 120 mins by scintillation counting method relative to control; type: cell-based
# [20] = test system: Cavia porcellus; test: Cardiotoxicity in guinea pig assessed as effect on QT interval time at 5 mg/kg, ip measured after 30 mins by ECG analysis (reference value: 127.6 to 131.2 milliseconds); type: toxicity, organism-based; conditions: in vivo, 0.5 h
# [21] = target: 5-hydroxytryptamine receptor 1D (Rattus norvegicus) (UniProt P28565); test: Antagonist activity at rat 5-HT1DR expressed in CHO cells assessed as inhibition of serotonin-induced response by cellular dielectric spectroscopy; type: functional, cell-based
# [22] = test system: Cavia porcellus; test: Cardiotoxicity in guinea pig assessed as effect on QRS interval time at 5 mg/kg, ip measured after 70 mins by ECG analysis (reference value: 26.2 to 31.6 milliseconds); type: toxicity, organism-based; conditions: in vivo
# [23] = test system: Cavia porcellus; test: Cardiotoxicity in guinea pig assessed as effect on QRS interval time at 5 mg/kg, ip measured after 30 mins by ECG analysis (reference value: 26.2 to 31.6 milliseconds); type: toxicity, organism-based; conditions: in vivo, 0.5 h
# Sequence of 5-hydroxytryptamine receptor 2A (P28223 whole entry): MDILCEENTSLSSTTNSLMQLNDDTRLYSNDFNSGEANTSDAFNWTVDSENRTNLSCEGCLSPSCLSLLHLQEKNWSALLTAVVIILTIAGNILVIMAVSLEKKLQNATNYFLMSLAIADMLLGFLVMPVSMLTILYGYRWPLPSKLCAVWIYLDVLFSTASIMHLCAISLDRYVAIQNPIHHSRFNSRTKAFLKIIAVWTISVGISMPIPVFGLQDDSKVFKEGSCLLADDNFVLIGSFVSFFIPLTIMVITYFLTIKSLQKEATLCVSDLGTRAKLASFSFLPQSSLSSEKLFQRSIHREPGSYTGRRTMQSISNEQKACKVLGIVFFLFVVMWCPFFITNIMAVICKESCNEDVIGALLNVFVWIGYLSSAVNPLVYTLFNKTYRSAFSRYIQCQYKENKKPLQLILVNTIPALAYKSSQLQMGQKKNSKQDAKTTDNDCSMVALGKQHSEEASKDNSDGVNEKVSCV
# Sequence of Histamine H1 receptor (Homo sapiens) (P35367 whole entry): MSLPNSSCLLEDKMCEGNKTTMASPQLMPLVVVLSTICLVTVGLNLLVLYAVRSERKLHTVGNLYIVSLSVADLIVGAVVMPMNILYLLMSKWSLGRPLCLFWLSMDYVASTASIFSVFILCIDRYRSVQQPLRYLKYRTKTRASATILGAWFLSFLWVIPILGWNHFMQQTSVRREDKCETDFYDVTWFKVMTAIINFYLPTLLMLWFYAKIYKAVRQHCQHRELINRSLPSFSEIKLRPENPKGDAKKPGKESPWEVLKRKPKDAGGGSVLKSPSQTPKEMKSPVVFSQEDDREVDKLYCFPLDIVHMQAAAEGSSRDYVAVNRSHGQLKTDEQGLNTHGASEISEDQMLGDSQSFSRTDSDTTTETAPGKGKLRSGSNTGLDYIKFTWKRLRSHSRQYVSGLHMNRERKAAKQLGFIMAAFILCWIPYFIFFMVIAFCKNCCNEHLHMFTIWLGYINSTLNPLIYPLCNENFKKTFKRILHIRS
# Sequence of D(2) dopamine receptor (Homo sapiens) (P14416 whole entry): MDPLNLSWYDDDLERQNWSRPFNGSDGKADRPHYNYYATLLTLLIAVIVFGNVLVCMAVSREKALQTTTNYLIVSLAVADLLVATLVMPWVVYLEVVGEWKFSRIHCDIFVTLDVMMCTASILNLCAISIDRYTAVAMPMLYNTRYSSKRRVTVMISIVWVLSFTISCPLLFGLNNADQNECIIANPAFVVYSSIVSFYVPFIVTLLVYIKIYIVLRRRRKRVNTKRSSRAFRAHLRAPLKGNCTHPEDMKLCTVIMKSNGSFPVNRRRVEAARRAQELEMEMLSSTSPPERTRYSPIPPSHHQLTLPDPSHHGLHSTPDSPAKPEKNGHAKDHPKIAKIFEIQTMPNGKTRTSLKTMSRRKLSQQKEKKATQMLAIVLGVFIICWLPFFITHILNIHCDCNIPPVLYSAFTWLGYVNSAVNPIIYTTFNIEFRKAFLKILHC
# Sequence of D(4) dopamine receptor (Homo sapiens) (P21917 whole entry): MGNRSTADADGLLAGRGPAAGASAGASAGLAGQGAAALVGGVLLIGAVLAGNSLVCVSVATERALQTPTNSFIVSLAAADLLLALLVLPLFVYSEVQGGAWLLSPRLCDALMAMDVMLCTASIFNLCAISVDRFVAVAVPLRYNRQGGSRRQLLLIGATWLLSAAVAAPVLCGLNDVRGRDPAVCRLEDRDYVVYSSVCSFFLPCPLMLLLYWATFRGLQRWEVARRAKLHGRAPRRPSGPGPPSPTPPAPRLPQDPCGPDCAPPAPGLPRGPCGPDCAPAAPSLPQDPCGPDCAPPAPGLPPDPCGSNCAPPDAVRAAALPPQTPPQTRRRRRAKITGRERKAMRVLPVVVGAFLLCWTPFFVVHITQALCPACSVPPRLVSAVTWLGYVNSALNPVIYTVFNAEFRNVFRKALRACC
# Sequence of 5-hydroxytryptamine receptor 1D (Rattus norvegicus) (P28565 whole entry): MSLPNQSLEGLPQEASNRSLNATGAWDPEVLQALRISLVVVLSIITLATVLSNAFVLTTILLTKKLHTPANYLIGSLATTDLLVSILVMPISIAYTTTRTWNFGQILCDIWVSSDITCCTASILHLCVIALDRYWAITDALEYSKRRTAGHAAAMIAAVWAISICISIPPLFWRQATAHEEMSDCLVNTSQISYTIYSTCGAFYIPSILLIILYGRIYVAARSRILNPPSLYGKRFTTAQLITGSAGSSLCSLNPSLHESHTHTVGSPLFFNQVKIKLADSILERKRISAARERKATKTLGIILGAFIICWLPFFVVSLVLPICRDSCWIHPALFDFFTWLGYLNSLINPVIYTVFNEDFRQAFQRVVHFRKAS
# Sequence of Sodium-dependent dopamine transporter (Homo sapiens) (Q01959 whole entry): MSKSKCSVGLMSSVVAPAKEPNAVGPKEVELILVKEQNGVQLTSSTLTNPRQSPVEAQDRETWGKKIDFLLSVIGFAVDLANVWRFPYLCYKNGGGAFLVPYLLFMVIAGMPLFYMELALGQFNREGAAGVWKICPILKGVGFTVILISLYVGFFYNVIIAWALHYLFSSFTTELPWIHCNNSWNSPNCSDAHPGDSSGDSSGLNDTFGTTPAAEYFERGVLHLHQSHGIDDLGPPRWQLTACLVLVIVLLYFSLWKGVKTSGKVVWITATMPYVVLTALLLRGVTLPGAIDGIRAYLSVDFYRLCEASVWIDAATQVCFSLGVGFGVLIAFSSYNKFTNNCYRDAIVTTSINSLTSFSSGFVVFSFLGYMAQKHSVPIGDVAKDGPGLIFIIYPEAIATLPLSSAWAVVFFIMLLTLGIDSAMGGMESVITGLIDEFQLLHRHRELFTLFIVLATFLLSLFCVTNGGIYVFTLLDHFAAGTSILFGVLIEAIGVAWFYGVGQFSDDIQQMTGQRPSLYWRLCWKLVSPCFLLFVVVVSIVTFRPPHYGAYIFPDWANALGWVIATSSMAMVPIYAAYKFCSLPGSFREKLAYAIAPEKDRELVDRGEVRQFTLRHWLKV
compound,measurement,setting,value
O=S(=O)(c1cncc2ccccc12)N1CCC[C@H]1CCN1CCN(c2cccc3sccc23)CC1,inhibition,[1],96%
same,pKi,[2],8.05
same,Time,[3],129 ms
same,Time,[4],124 ms
same,inhibition,[5],100%
same,Activity,[6],263 min⁻¹
same,inhibition,[7],94%
same,Time,[8],123.6 ms
same,Time,[9],266.6 ms
same,Time,[10],64.2 ms
same,Time,[11],267 ms
same,Time,[12],214.8 ms
same,Time,[13],124.6 ms
same,pKi,[14],7.74
same,Time,[15],219.8 ms
same,minimal effective dose,[16],3 mg/kg
same,inhibition,[17],10%
same,Time,[18],227.2 ms
same,inhibition,[19],19%
same,Time,[20],126.8 ms
same,Kb,[21],2.8 nM
same,Time,[22],30.8 ms
same,Time,[23],32.4 ms
O=S(=O)(c1cncc2ccccc12)N1CCC[C@H]1CCN1CCN(c2nsc3ccccc23)CC1,Time,[3],121.6 ms
same,Time,[4],125.4 ms
same,Activity,[6],304 min⁻¹
same,Time,[8],125.6 ms
same,Time,[9],275.8 ms
same,Time,[10],60 ms
same,Time,[11],272.2 ms
same,Time,[12],211.4 ms
same,Time,[13],125.8 ms
same,Time,[15],210.4 ms
same,minimal effective dose,[16],3 mg/kg
same,Time,[18],211 ms
same,Time,[20],128.8 ms
same,Time,[22],27.8 ms
same,Time,[23],26.8 ms
